In US20230264191A1, “SYSTEMS AND METHODS FOR FABRICATING PHYSIOLOGICALLY RELEVANT IN VITRO VESSELS” (The Texas A&M University System, priority 2022, published 2023):

Test system: lymphatic endothelial cells (LEC monoculture / LEC-LMC coculture in lymphangion-chip)
Test: Lymphatic endothelial barrier function (permeability) of the lymphangion-chip after exposure to TNF-α
Assay type: cell-based
Conditions: LMCs cocultured with LECs (graph 400, FIG. 22)

Substance: Tumor Necrosis Factor Alpha (TNF-α)
- lymphatic endothelial barrier function: relatively conserved
